Key:
[1] = tested on: non-transformed iris cells; assay: Evaluation of selection agents: growth suppression of non-transformed iris suspension-cultured cells on MS-C medium; assay type: cell-based, Iris germanica; conditions: for inhibition of cell growth scored visually: preliminary experiments, five concentrations
Protocol: Evaluation of selection agents. […] To determine the efficacy of several commonly used agents for selecting transformed iris cells, the following substances were tested: five antibiotics (methotrexate, hygromycin, geneticin (G418), gentamycin, and phleomycin); three herbicides (glyphosate [N-(Phosphonomethyl)glycine] (Monsanto, St. Louis, Mo.), chlorsulfuron [2-Chloro-N-[[(methoxy-6-methyl-1,3,5-triazin-2-yl)amino]carbonyl]benzenesulfonamide] (E.I. Du Pont de Nemours & Co., Inc., Agricultural Products Dept., Wilmington, Del.) and glufosinate-ammonium (Basta; Hoechst Canada, Inc., Regina, Saskatchewan, Canada)); and one amino acid analog (4-methyl-tryptophan) (Sigma).
The liquid MS-L medium was removed from a three-week-old iris suspension culture and the cells spread on Whatman No. 1 filter papers (42.5 mm diameter) in small culture plates (60 mm×15 mm), over MS-C medium [MS-L medium with 3 g·L^−1 Phytagel (Sigma Chem. Co., St. Louis, Mo.), as described in Examples 1 and 2] containing increasing amounts of the selection agent. Plates were incubated for three weeks in the dark at 25° C. In preliminary experiments, five concentrations of each selection agent were tested and inhibition of cell growth was scored visually.
Fresh weights of resultant tissue were measured and mean values, expressed as a percentage of growth by controls (no selection agent). At least five plates were used for each concentration of selection agent.

[2] = tested on: leaf samples from non-transformed iris plants; assay: Leaf-bleach assay with paromomycin; design: species or system Iris germanica; conditions: 200 mg·L^−1 paromomycin; leaf samples from control (non-transgenic) plants; five days
Protocol: Functional assay of NPTII genes. To test the NPTII expression in transformed iris plants, the leaf-bleach assay was carried out according to Cheng et al. (Plant Physiol., 115:971-980, 1997), with minor modifications described below. Four pieces (≈7-mm) were cut from the second youngest leaf of each plant approximately one month after establishment in growing medium in the greenhouse. One leaf piece was placed in 1 mL of solution containing 25 mg·L^−1 benomyl fungicide [methyl 1-(butylcarbamoyl)-2 benzimidazolecarbamate] (Hi-Yield Chem. Co., Bonham, Tex.) and 0.01% Triton X-100 (Sigma), in a well of 24-well culture plate, as a control. Each of the remaining three pieces were placed in 1 mL of the same solution with either 50, 100, or 200 mg·L^−1 paromomycin (Sigma). Leaf samples from the non-transformed iris plants at a similar developmental stage were used as a negative control. The samples were vacuum-infiltrated for 10 minutes. The plates were then sealed with Parafilm and incubated for five days at 23° C. with a 16 hours photoperiod of 50 μmol·m^−2·s^−1 provided by cool-white fluorescent lamps. In preliminary assays, G418 and hygromycin were also tested, the latter for the functional expression of the hpt gene. The response to all three antibiotics was very similar, so paromomycin was selected to assay the rest of the putative transgenic iris plants because it was least expensive.

[3] = tested on: suspension-cultured cells of Iris germanica; assay: Effect of Kin and NAA in MS-I medium on regeneration potential of differentiated clumps; assay type: cell-based; conditions: 6 weeks on MS-D with 1.25 μM BA
Protocol: Effect of Kin and NAA, a/one and in combination, in MS-I medium. To induce plant morphogenesis from suspension-cultured cells, 16 different combinations of NAA (0.0, 0.5, 2.5, and 12.5 μM) and Kin (0.0, 2.5, 12.5, and 62.5 μM) were evaluated. A 0.5-mL aliquot of the resuspended cells was inoculated on each 15×60 mm plastic plate containing 20 mL MS-I medium with different combinations of Kin and NAA. The cells were spread with a spoon-like spatula to form a uniform layer on the surface of MS-I medium. The plates were sealed with Parafilm® and incubated in the dark at 25° C. The number of differentiated clumps was recorded after five weeks. The clumps were collected and grouped into four size classes: large (>10 mm), medium (5 to 10 mm), small (2 to 5 mm) and very small (<2 mm). The regeneration potential of differentiated clumps was assessed by randomly sampling 30 to 60 clumps from each size class and transferring them to three to six Magenta GA-7 vessels (Sigma Chem. Co., St. Louis, Mo.) containing 50 mL of MS-D medium (Table 1) supplemented with 1.25 μM BA. They were then incubated under light (50 μmol m^−2 s^−1) at 23° C. for six weeks. The total number of regenerating clumps (i.e., differentiated clumps that continued to grow and develop on MS-D medium) was counted, and percentages of regenerating clumps that developed shoots only or plantlets (rooted shoots derived from somatic embryos) were recorded. The regenerated shoots and plantlets were transferred to MS-R medium (Table 1) to promote root development. Each Kin/NAA combination was evaluated in five plates per experiment; the entire experiment was repeated three times.

[4] = 0.5 μM in MS-I medium (main effect)
[5] = 2.5 μM in MS-I medium (main effect)
[6] = 12.5 μM in MS-I medium (main effect)
[7] = 62.5 μM in MS-I medium (main effect)

Compound: COc1nc(C)nc(NC(=O)NS(=O)(=O)c2ccccc2Cl)n1 [chlorsulfuron, 2-Chloro-N-[[(methoxy-6-methyl-1,3,5-triazin-2-yl)amino]carbonyl]benzenesulfonamide]
- inhibition at 0.5 µg/mL ([1]; Iris germanica, 504 h, 0.5 mg·L^−1, three weeks on MS-C medium, read-out: cell growth inhibited): ~90%

Compound: NC[C@@H]1O[C@H](O[C@H]2[C@@H](O)[C@H](O[C@@H]3[C@@H](O)[C@H](N)C[C@H](N)[C@H]3O[C@H]3O[C@H](CO)[C@@H](O)[C@H](O)[C@H]3N)O[C@@H]2CO)[C@H](N)[C@@H](O)[C@@H]1O [paromomycin]
- leaf bleaching [2]: almost completely bleached

Compound: Cc1cccc2[nH]cc(C[C@H](N)C(=O)O)c12 [4-methyl-tryptophane, 4-methyl-tryptophan]
- inhibition of cell growth scored visually [1]: did not clearly inhibit growth

Compound: gentamycin
- inhibition of cell growth scored visually [1]: did not clearly inhibit growth

Compound: O=C(O)Cc1cccc2ccccc12 [NAA, 1-naphthaleneacetic acid]
- Regenerating clumps (%) [3, 4]: 56%
- Regenerating clumps developing PLANTLETS (%) [3, 4]: 94%
- Regenerating clumps developing SHOOTS ONLY (%) [3, 4]: 6%
- Regenerating clumps (%) [3, 5]: 55%
- Regenerating clumps developing PLANTLETS (%) [3, 5]: 89%
- Regenerating clumps developing SHOOTS ONLY (%) [3, 5]: 11%
- Regenerating clumps (%) [3, 6]: 33%
- Regenerating clumps developing PLANTLETS (%) [3, 6]: 94%
- Regenerating clumps developing SHOOTS ONLY (%) [3, 6]: 7%

Compound: c1coc(CNc2ncnc3[nH]cnc23)c1 [KIN, kinetin]
- Regenerating clumps (%) [3, 5]: 41%
- Regenerating clumps developing PLANTLETS (%) [3, 5]: 96%
- Regenerating clumps developing SHOOTS ONLY (%) [3, 5]: 5%
- Regenerating clumps (%) [3, 6]: 44%
- Regenerating clumps developing PLANTLETS (%) [3, 6]: 89%
- Regenerating clumps developing SHOOTS ONLY (%) [3, 6]: 12%
- Regenerating clumps (%) [3, 7]: 45%
- Regenerating clumps developing PLANTLETS (%) [3, 7]: 88%
- Regenerating clumps developing SHOOTS ONLY (%) [3, 7]: 12%

Compound: phleomycin
- inhibition of cell growth scored visually [1]: did not clearly inhibit growth

Compound: CP(=O)(O)CCC(N)C(=O)O (centres unmarked) [Basta, glufosinate-ammonium]
- inhibition at 10 µg/mL ([1]; Iris germanica, 504 h, read-out: cell growth inhibited): ~70%

Compound: O=C(O)CNCP(=O)(O)O [glyphosate, N-(Phosphonomethyl)glycine]
- inhibition of cell growth scored visually [1]: did not clearly inhibit growth

Compound: CN(Cc1cnc2nc(N)nc(N)c2n1)c1ccc(C(=O)N[C@@H](CCC(=O)O)C(=O)O)cc1 [methotrexate]
- inhibition at 0.05 µg/mL ([1]; Iris germanica, 504 h, 0.05 mg·L^−1, three weeks on MS-C medium, read-out: cell growth inhibited): ~80%

From US6459017B1, “Iris transformation method” (The State of Oregon Acting By and Through the State Board …, priority 2000, dated 2002)
